Values quoted from earlier work in US12357678B2, “Cancer stem cell targeted cancer vaccines” (priority 2012, dated 2025).

How the values were obtained:
HLA-A2 = details: mutant vs wild type IL-13Rα2345-353
T cells = details: mutant vs wild type IL-13Rα2345-353
[1] = test system: IL-13Ra2 positive, HLA-A2 positive glioma cells

## ALPFGFILV (Amino acid residues 345-353 of IL-13 Receptor alpha mutation of W to A at position 345 and I to V at position 353) [IL-13Rα2345-353:1A9V, IL-13Rα2 345-353 with mutation of W to A at position 345 and I to V at position 353]
HLA-A2
  affinity for HLA-A2 relative to wild type peptide: increased the affinity for HLA-A2
T cells
  T cell response (immunogenicity) relative to wild type peptide: more robust T cell response
[1]; T cells stimulated with mutant vs wild type peptide
  killing of glioma cells by T cells stimulated with the peptide, relative to wild type: more effective at killing glioma cells

## ELMLG EFLKL (ELMLGEFLKL; Amino acid residues 95-104 of Survivin with a methionine substitution at position 3) [SEQ ID NO:9, Survivin 95-104 with a methionine substitution at position 3]
Cancer cells
  activation of T cells cytotoxic to cancer cells: able to activate T cells that were cytotoxic to cancer cells
  immunogenicity of survivin analog peptide: immunogenic

## WLPFGFILI (Amino acid residues 345-353 of IL-13 Receptor alpha; listed as Homo sapiens) [IL-13Rα2345-353, Amino acid residues 345-353 of Interleukin-13 Receptor alpha]
[1]; IL-13Ra2 positive, HLA-A2 positive glioma cells, antigen-specific
  lysis of glioma cells by CTL lines generated by stimulation of CD8+ cells with the peptide: efficiently lysed
